Experimental data published in patent publication US6544991B2, “Compositions and methods for treating bacterial infections” (priority 2000, dated 2003).
Like-named read-outs stand apart in the source and are kept apart here. Values belong to the molecule of their own block, whether it stands above or below them.

Experiments:
Staph. aureus 29213 = test: MIC, quality control strain; format: cell-based; conditions: Staphylococcus aureus, read-out: MIC Values
Experimental: (§1) Bacterial isolates were obtained from human infections. The isolates were maintained frozen in a liquid nitrogen freezer and plated on Trypticase Soy Agar (TSA) plates supplemented with 5% sheep blood. The quality control strain Staph. aureus 29213 was originally acquired from the American Type Culture Collection (Rockville, Md.).
(§2) MICs were determined by an agar dilution method or microbroth dilution method recommended by NCCLS. Synergy was assessed by agar dilution checker-board method. Minimal inhibitory concentrations (MICS) for each separate drug were determined. The fractional inhibitory concentration (FIC) values were calculated by the MIC of Drug A (e.g., sulbactam/ampicillin) and Drug B (e.g., linezolid or arbekacin) in combination/MIC of Drug A or B alone. The FIC index was determined according to the following formula: [formula]

MRSA strains = test: MIC by agar dilution or microbroth dilution method (NCCLS); format: cell-based, Staph. aureus; set-up: MIC50: unit not given beside the values; conditions: for MIC: Staphylococcus aureus
Experimental: as §1, §2

VRSA strains = test: MIC by agar dilution or microbroth dilution method (NCCLS), VRSA strains; format: cell-based, Staph. aureus; conditions: VRSA strains (n = 10); for MIC: Staphylococcus aureus
Experimental: as §1, §2
In total, 48 MRSA strains were tested, including ten VRSA strains isolated from five different countries in the world, 33 MRSA strains isolated from ten Japanese university hospitals, and five MRSA type strains from Juntendo University, Department of Bacteriology, Tokyo, Japan.

[1] = ATCC29213, strain ATCC 29213, control sample (Ex. 26)
[2] = ATCC29213, strain ATCC29213, control sample (Ex. 37)
[3] = MRSA / NCTC 10442, strain NCTC 10442, read-out: MIC Values
[4] = MRSA, MRSA strains (n = 38), read-out: MICs 50%
[5] = MRSA, MRSA strains (n = 38), read-out: MICs 90%
[6] = MRSA, strain 85/2082, read-out: MIC Values
[7] = MRSA, strain 99.3700W, read-out: MIC Values
[8] = MRSA, strain 99.3759V, read-out: MIC Values
[9] = MRSA, strain AMC 11094, read-out: MIC Values
[10] = MRSA, strain BM12612(new), read-out: MIC Values
[11] = MRSA, strain H1, read-out: MIC Values
[12] = MRSA, strain HIP 5827, read-out: MIC Values
[13] = MRSA, strain HIP 5836, read-out: MIC Values
[14] = MRSA, strain HIP 6297, read-out: MIC Values
[15] = MRSA, strain HIP 7737, read-out: MIC Values
[16] = MRSA, strain JSCC 340, read-out: MIC Values
[17] = MRSA, strain JSCC 351, read-out: MIC Values
[18] = MRSA, strain JSCC 363, read-out: MIC Values
[19] = MRSA, strain JSCC 381, read-out: MIC Values
[20] = MRSA, strain JSCC 390, read-out: MIC Values
[21] = MRSA, strain JSCC 401, read-out: MIC Values
[22] = MRSA, strain JSCC 413, read-out: MIC Values
[23] = MRSA, strain JSCC 431, read-out: MIC Values
[24] = MRSA, strain JSCC 440, read-out: MIC Values
[25] = MRSA, strain JSCC 451, read-out: MIC Values
[26] = MRSA, strain JSCC 463, read-out: MIC Values
[27] = MRSA, strain JSCC 481, read-out: MIC Values
[28] = MRSA, strain JSCC 490, read-out: MIC Values
[29] = MRSA, strain JSCC 501, read-out: MIC Values
[30] = MRSA, strain JSCC 513, read-out: MIC Values
[31] = MRSA, strain JSCC 531, read-out: MIC Values
[32] = MRSA, strain JSCC 540, read-out: MIC Values
[33] = MRSA, strain JSCC 551, read-out: MIC Values
[34] = MRSA, strain JSCC 563, read-out: MIC Values
[35] = MRSA, strain JSCC 581 (lacks the mecA gene), read-out: MIC Values
[36] = MRSA, strain JSCC 590 (lacks the mecA gene), read-out: MIC Values
[37] = MRSA, strain JSCC 601, read-out: MIC Values
[38] = MRSA, strain JSCC 640, read-out: MIC Values
[39] = MRSA, strain JSCC 651, read-out: MIC Values
[40] = MRSA, strain JSCC 663, read-out: MIC Values
[41] = MRSA, strain JSCC 681, read-out: MIC Values
[42] = MRSA, strain JSCC 690, read-out: MIC Values
[43] = MRSA, strain JSCC 701, read-out: MIC Values
[44] = MRSA, strain JSCC 713, read-out: MIC Values
[45] = MRSA, strain JSCC 731, read-out: MIC Values
[46] = MRSA, strain JSCC 740, read-out: MIC Values
[47] = MRSA, strain JSCC 751, read-out: MIC Values
[48] = MRSA, strain JSCC 763, read-out: MIC Values
[49] = MRSA, strain JSCC 781, read-out: MIC Values
[50] = MRSA, strain JSCC 870, read-out: MIC Values
[51] = MRSA, strain LIM 2, read-out: MIC Values
[52] = MRSA, strain Mu 3, read-out: MIC Values
[53] = MRSA, strain Mu 50, read-out: MIC Values

MIC (Staph. aureus 29213; [1]): 0.5 µg/mL
MIC (Staph. aureus 29213; [2]): 0.25 µg/mL
MIC (MRSA strains; [3]): < 128 µg/mL
MIC (MRSA strains; [4]): 16 µg/mL
MIC (MRSA strains; [5]): 64 µg/mL
MIC (MRSA strains; [6]): 32 µg/mL
MIC (MRSA strains; [7]): 32 µg/mL
MIC (MRSA strains; [8]): 64 µg/mL
MIC (MRSA strains; [9]): 16 µg/mL
MIC (MRSA strains; [10]): 64 µg/mL
MIC (MRSA strains; [11]): 16 µg/mL
MIC (MRSA strains; [12]): 64 µg/mL
MIC (MRSA strains; [13]): 16 µg/mL
MIC (MRSA strains; [14]): 16 µg/mL
MIC (MRSA strains; [15]): 32 µg/mL
MIC (MRSA strains; [16]): 64 µg/mL
MIC (MRSA strains; [17]): 32 µg/mL
MIC (MRSA strains; [18]): 16 µg/mL
MIC (MRSA strains; [19]): 32 µg/mL
MIC (MRSA strains; [20]): 32 µg/mL
MIC (MRSA strains; [21]): 128 µg/mL
MIC (MRSA strains; [22]): 16 µg/mL
MIC (MRSA strains; [23]): 64 µg/mL
MIC (MRSA strains; [24]): 32 µg/mL
MIC (MRSA strains; [25]): 16 µg/mL
MIC (MRSA strains; [26]): 16 µg/mL
MIC (MRSA strains; [27]): 64 µg/mL
MIC (MRSA strains; [28]): 64 µg/mL
MIC (MRSA strains; [29]): 32 µg/mL
MIC (MRSA strains; [30]): 16 µg/mL
MIC (MRSA strains; [31]): 32 µg/mL
MIC (MRSA strains; [32]): 32 µg/mL
MIC (MRSA strains; [33]): 16 µg/mL
MIC (MRSA strains; [34]): 1 µg/mL
MIC (MRSA strains; [35]): 0.5 µg/mL
MIC (MRSA strains; [36]): 0.5 µg/mL
MIC (MRSA strains; [37]): 16 µg/mL
MIC (MRSA strains; [38]): 16 µg/mL
MIC (MRSA strains; [39]): 64 µg/mL
MIC (MRSA strains; [40]): 16 µg/mL
MIC (MRSA strains; [41]): 16 µg/mL
MIC (MRSA strains; [42]): 16 µg/mL
MIC (MRSA strains; [43]): 32 µg/mL
MIC (MRSA strains; [44]): 16 µg/mL
MIC (MRSA strains; [45]): 32 µg/mL
MIC (MRSA strains; [46]): 16 µg/mL
MIC (MRSA strains; [47]): 64 µg/mL
MIC (MRSA strains; [48]): 8 µg/mL
MIC (MRSA strains; [49]): 16 µg/mL
MIC (MRSA strains; [50]): 32 µg/mL
MIC (MRSA strains; [51]): 32 µg/mL
MIC (MRSA strains; [52]): 32 µg/mL
MIC (MRSA strains; [53]): 32 µg/mL
MIC (MRSA strains; MRSA, strain N315, read-out: MIC Values): 8 µg/mL
MIC (VRSA strains; read-out: MICs 50%): 32 µg/mL
MIC (VRSA strains; read-out: MICs 90%): 64 µg/mL
MICs Range (VRSA strains): 16 to 64 mg/L
SMILES: CC1(C)SC2C(NC(=O)C(N)c3ccccc3)C(=O)N2C1C(=O)O (stereo not drawn) [ABPC, α-aminobenzylpenicillin]

SMILES: CC(=O)NC[C@H]1CN(c2ccc(N3CCOCC3)c(F)c2)C(=O)O1 [LZD, (S)-N-[[3-[3-fluoro-4-(4-morpholinyl)phenyl]-2-oxo-5-oxazolidinyl]methyl]acetamide]
MIC (Staph. aureus 29213; [1]): 2 µg/mL
MIC (Staph. aureus 29213; [2]): 2 µg/mL
MIC50 (MRSA strains; 48 MRSA strains tested, including ten VRSA strains): 2
MICs Range (MRSA strains; MRSA strains (n = 38)): 0.5 to 2 mg/L
MIC (MRSA strains; [3]): 2 µg/mL
MIC (MRSA strains; [4]): 2 µg/mL
MIC (MRSA strains; [5]): 2 µg/mL
MIC (MRSA strains; [6]): 2 µg/mL
MIC (MRSA strains; [7]): 2 µg/mL
MIC (MRSA strains; [8]): 2 µg/mL
MIC (MRSA strains; [9]): 2 µg/mL
MIC (MRSA strains; [10]): 2 µg/mL
MIC (MRSA strains; [11]): 2 µg/mL
MIC (MRSA strains; [12]): 2 µg/mL
MIC (MRSA strains; [13]): 2 µg/mL
MIC (MRSA strains; [14]): 2 µg/mL
MIC (MRSA strains; [15]): 2 µg/mL
MIC (MRSA strains; [16]): 2 µg/mL
MIC (MRSA strains; [17]): 2 µg/mL
MIC (MRSA strains; [18]): 2 µg/mL
MIC (MRSA strains; [19]): 2 µg/mL
MIC (MRSA strains; [20]): 2 µg/mL
MIC (MRSA strains; [21]): 2 µg/mL
MIC (MRSA strains; [22]): 2 µg/mL
MIC (MRSA strains; [23]): 2 µg/mL
MIC (MRSA strains; [24]): 2 µg/mL
MIC (MRSA strains; [25]): 2 µg/mL
MIC (MRSA strains; [26]): 2 µg/mL
MIC (MRSA strains; [27]): 2 µg/mL
MIC (MRSA strains; [28]): 2 µg/mL
MIC (MRSA strains; [29]): 2 µg/mL
MIC (MRSA strains; [30]): 1 µg/mL
MIC (MRSA strains; [31]): 1 µg/mL
MIC (MRSA strains; [32]): 1 µg/mL
MIC (MRSA strains; [33]): 2 µg/mL
MIC (MRSA strains; [34]): 1 µg/mL
MIC (MRSA strains; [35]): 2 µg/mL
MIC (MRSA strains; [36]): 2 µg/mL
MIC (MRSA strains; [37]): 1 µg/mL
MIC (MRSA strains; [38]): 1 µg/mL
MIC (MRSA strains; [39]): 2 µg/mL
MIC (MRSA strains; [40]): 2 µg/mL
MIC (MRSA strains; [41]): 0.5 µg/mL
MIC (MRSA strains; [42]): 1 µg/mL
MIC (MRSA strains; [43]): 1 µg/mL
MIC (MRSA strains; [44]): 2 µg/mL
MIC (MRSA strains; [45]): 1 µg/mL
MIC (MRSA strains; [46]): 2 µg/mL
MIC (MRSA strains; [47]): 2 µg/mL
MIC (MRSA strains; [48]): 2 µg/mL
MIC (MRSA strains; [49]): 2 µg/mL
MIC (MRSA strains; [50]): 2 µg/mL
MIC (MRSA strains; [51]): 1 µg/mL
MIC (MRSA strains; [52]): 2 µg/mL
MIC (MRSA strains; [53]): 2 µg/mL
susceptibility (range of MICs) (MRSA strains; all tested MRSA isolates, including VRSA strains): susceptible range of MICs
MIC (VRSA strains; read-out: MICs 50%): 2 µg/mL
MIC (VRSA strains; read-out: MICs 90%): 2 µg/mL
MICs Range (VRSA strains): 1 to 2 mg/L
